Columns and labels:
Test in all cases: relative viability (nuclei count vs DMSO), 5 days (fraction); higher = more cells survive
[1] = compound: CCn1c(-c2nonc2N)nc2c(C#CC(C)(C)O)ncc(OC[C@H]3CCCNC3)c21 + Nc1ncn([C@H]2C[C@H](O)[C@@H](CO)O2)c(=O)n1 [Decitabine] (partner 2 µM)
How it was run: (§1)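 Relative viability was taken as the ratio of nuclei in treated wells to nuclei in vehicle wells. Lung cancer cell lines in 1536-well plates received compounds by pin tool one day after seeding, either one drug alone or a fixed anchor-drug dose plus five library-drug doses (not always all listed) in √10 steps. Nuclei were counted on 4× images after 5 days of treatment, and values are medians of duplicate plates.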

[2] = compound: CCn1c(-c2nonc2N)nc2c(C#CC(C)(C)O)ncc(OC[C@H]3CCCNC3)c21 + CC(=O)c1c(C)c2cnc(Nc3ccc(N4CCNCC4)cn3)nc2n(C2CCCC2)c1=O [Palbociclib] (partner 0.5 µM)
How it was run: as §1

BAM7 + Crizotinib = compound: CCOC1=CC=CC=C1N=NC2=C(NN(C2=O)C3=NC(=CS3)C4=CC=CC=C4)C [BAM7] + C[C@@H](Oc1cc(-c2cnn(C3CCNCC3)c2)cnc1N)c1c(Cl)ccc(F)c1Cl [Crizotinib] (partner 1 µM)
How it was run: as §1

BAM7 + Linsitinib = compound: CCOC1=CC=CC=C1N=NC2=C(NN(C2=O)C3=NC(=CS3)C4=CC=CC=C4)C [BAM7] + C[C@]1(O)C[C@@H](c2nc(-c3ccc4ccc(-c5ccccc5)nc4c3)c3c(N)nccn32)C1 [Linsitinib] (partner 1 µM)
How it was run: as §1

Row | Cell Line | relative viability ([1]; first compound 0.01 µM) | relative viability ([1]; first compound 0.03162 µM) | relative viability ([1]; first compound 0.1 µM) | relative viability ([1]; first compound 0.3162 µM) | relative viability ([1]; first compound 1 µM) | relative viability ([2]; first compound 0.01 µM) | relative viability ([2]; first compound 0.03162 µM) | relative viability ([2]; first compound 0.1 µM) | relative viability ([2]; first compound 0.3162 µM) | relative viability ([2]; first compound 1 µM) | relative viability (BAM7 + Crizotinib; first compound 0.5 µM) | relative viability (BAM7 + Crizotinib; first compound 5 µM) | relative viability (BAM7 + Crizotinib; first compound 15.81 µM) | relative viability (BAM7 + Crizotinib; first compound 50 µM) | relative viability (BAM7 + Linsitinib; first compound 0.5 µM) | relative viability (BAM7 + Linsitinib; first compound 5 µM) | relative viability (BAM7 + Linsitinib; first compound 15.81 µM) | relative viability (BAM7 + Linsitinib; first compound 50 µM)
1 | NCI-H1355 | 0.339 | 0.346 | 0.385 | 0.324 | 0.355 | 0.408 | 0.367 | 0.406 | 0.382 | 0.382 | 0.968 | 1.05 | 0.937 | 0.987 | 0.89 | 0.823 | 0.729 | 0.792
2 | NCI-H1437 | 0.558 | 0.541 | 0.564 | 0.611 | 0.627 | 0.295 | 0.297 | 0.338 | 0.281 | 0.359 | 1 | 1.16 | 0.53 | 0.937 | 1.03 | 0.959 | 0.922 | 0.993
3 | NCI-H1651 | 0.582 | 0.608 | 0.652 | 0.597 | 0.663 | 0.518 | 0.528 | 0.505 | 0.49 | 0.56 | 0.826 | 0.889 | 0.871 | 0.886 | 1.05 | 1.09 | 1.01 | 1.02
4 | NCI-H1666 | 0.71 | 0.657 | 0.809 | 0.834 | 0.735 | 0.615 | 0.647 | 0.645 | 0.626 | 0.636 | 1.07 | 1.02 | 1.03 | 0.967 | 0.835 | 0.867 | 0.734 | 0.854
5 | NCI-H1734 | 0.453 | 0.496 | 0.546 | 0.465 | 0.484 | 0.375 | 0.332 | 0.306 | 0.303 | 0.33 | 0.868 | 0.634 | 0.556 | 0.685 | 0.946 | 1.07 | 0.821 | 0.937
6 | NCI-H1755 | 0.727 | 0.753 | 0.673 | 0.669 | 0.722 | 0.451 | 0.514 | 0.463 | 0.437 | 0.422 | 0.917 | 0.935 | 0.829 | 0.85 | 1.01 | 1.06 | 1.02 | 0.978
7 | NCI-H1792 | 0.558 | 0.499 | 0.547 | 0.419 | 0.518 | 0.607 | – | 0.601 | 0.586 | 0.701 | 0.984 | 1.06 | 1.06 | 0.906 | 0.64 | 0.54 | 0.542 | 0.628
8 | NCI-H1915 | 0.254 | 0.252 | 0.258 | 0.248 | 0.248 | 0.488 | 0.545 | 0.531 | 0.487 | 0.537 | 0.892 | 0.918 | 0.874 | 0.891 | 1.08 | 1.2 | 1.08 | 1.1
9 | NCI-H1944 | 0.443 | 0.415 | 0.45 | 0.446 | 0.448 | 0.359 | 0.353 | 0.348 | 0.314 | 0.325 | 0.984 | 1.15 | 0.839 | 0.821 | 1.3 | 1.36 | 1.13 | 1.07

Source: the supplement of paper PMC10307832
